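Tested at 5 concentrations; 48 h exposure; 96-well plates; endpoints linearly interpolated, else capped at highest concentration. TGI denotes the concentration required for complete inhibition of growth.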
Columns and labels:
Test in all cases: inhibition of tumour cell growth, NCI panel, 48 h
MOLT-4 leukemia = system: MOLT-4 leukemia
NCI-H460 lung = system: NCI-H460 lung
MALME-3M melanoma = system: MALME-3M melanoma
U251 CNS = system: U251 CNS
SF-539 CNS = system: SF-539 CNS
HL-60(TB) leukemia = system: HL-60(TB) leukemia
A498 renal = system: A498 renal
CCRF-CEM leukemia = system: CCRF-CEM leukemia
KM12 colon = system: KM12 colon
COLO 205 colon = system: COLO 205 colon
SNB-75 CNS = system: SNB-75 CNS
HCT-15 colon = system: HCT-15 colon
EKVX NSCLC = system: EKVX NSCLC
DMS 114 small cell lung = system: DMS 114 small cell lung
IGROV1 ovarian = system: IGROV1 ovarian
SF-295 CNS = system: SF-295 CNS
SF-268 CNS = system: SF-268 CNS
RXF-631 renal = system: RXF-631 renal
OVCAR-5 ovarian = system: OVCAR-5 ovarian
SW-620 colon = system: SW-620 colon
NCI-H522 lung = system: NCI-H522 lung
SN12C renal = system: SN12C renal
ACHN renal = system: ACHN renal
A549 NSCLC = system: A549 NSCLC
KM20L2 colon = system: KM20L2 colon
TK-10 renal = system: TK-10 renal
HOP-18 NSCLC = system: HOP-18 NSCLC
UACC-62 melanoma = system: UACC-62 melanoma
LOX IMVI melanoma = system: LOX IMVI melanoma
SNB-19 CNS = system: SNB-19 CNS
HOP-62 NSCLC = system: HOP-62 NSCLC
NCI-H23 lung = system: NCI-H23 lung
SNB-78 CNS = system: SNB-78 CNS
HCT-116 colon = system: HCT-116 colon
OVCAR-3 ovarian = system: OVCAR-3 ovarian
UACC-257 melanoma = system: UACC-257 melanoma
RXF 393 renal = system: RXF 393 renal
K-562 leukemia = system: K-562 leukemia
SK-MEL-5 melanoma = system: SK-MEL-5 melanoma
CAKI-1 renal = system: CAKI-1 renal
NCI-H226 lung = system: NCI-H226 lung
SR leukemia = system: SR leukemia
OVCAR-8 ovarian = system: OVCAR-8 ovarian
OVCAR-4 ovarian = system: OVCAR-4 ovarian
786-0 renal = system: 786-0 renal
SK-OV-3 ovarian = system: SK-OV-3 ovarian
HT29 colon = system: HT29 colon
HOP-92 NSCLC = system: HOP-92 NSCLC
M14 melanoma = system: M14 melanoma
SK-MEL-28 melanoma = system: SK-MEL-28 melanoma
DLD-1 colon = system: DLD-1 colon
LXFL 529 NSCLC = system: LXFL 529 NSCLC
UO-31 renal = system: UO-31 renal
RPMI-8226 leukemia = system: RPMI-8226 leukemia
SK-MEL-2 melanoma = system: SK-MEL-2 melanoma
HCC-2998 colon = system: HCC-2998 colon
M19-MEL melanoma = system: M19-MEL melanoma
DMS 273 small cell lung = system: DMS 273 small cell lung
XF 498 CNS = system: XF 498 CNS

Measured: TGI

COC1OC(CO)C(O)C1N (stereo unspecified)
> 100 µM: MOLT-4 leukemia | NCI-H460 lung | MALME-3M melanoma | U251 CNS | SF-539 CNS | HL-60(TB) leukemia | A498 renal | CCRF-CEM leukemia | KM12 colon | COLO 205 colon | SNB-75 CNS | HCT-15 colon | EKVX NSCLC | DMS 114 small cell lung | IGROV1 ovarian | SF-295 CNS | SF-268 CNS | RXF-631 renal | OVCAR-5 ovarian | SW-620 colon | NCI-H522 lung | SN12C renal | ACHN renal | A549 NSCLC | KM20L2 colon | TK-10 renal | HOP-18 NSCLC | UACC-62 melanoma | LOX IMVI melanoma | SNB-19 CNS | HOP-62 NSCLC | NCI-H23 lung | SNB-78 CNS | HCT-116 colon | OVCAR-3 ovarian | UACC-257 melanoma | RXF 393 renal | K-562 leukemia | SK-MEL-5 melanoma | CAKI-1 renal | NCI-H226 lung | SR leukemia | OVCAR-8 ovarian | OVCAR-4 ovarian | 786-0 renal | SK-OV-3 ovarian | HT29 colon | HOP-92 NSCLC | M14 melanoma | SK-MEL-28 melanoma | DLD-1 colon | LXFL 529 NSCLC

Cc1cccc(-n2c(=S)[nH]c3c(sc(=O)n3-c3ccccc3C)c2=O)c1
> 100 µM: UO-31 renal | MOLT-4 leukemia | NCI-H460 lung | MALME-3M melanoma | U251 CNS | SF-539 CNS | HL-60(TB) leukemia | A498 renal | CCRF-CEM leukemia | KM12 colon | COLO 205 colon | SNB-75 CNS | HCT-15 colon | EKVX NSCLC | DMS 114 small cell lung | IGROV1 ovarian | SF-295 CNS | RPMI-8226 leukemia | SK-MEL-2 melanoma | HCC-2998 colon | SF-268 CNS | RXF-631 renal | OVCAR-5 ovarian | SW-620 colon | NCI-H522 lung | SN12C renal | ACHN renal | A549 NSCLC | KM20L2 colon | HOP-18 NSCLC | UACC-62 melanoma | SNB-19 CNS | HOP-62 NSCLC | NCI-H23 lung | M19-MEL melanoma | SNB-78 CNS | HCT-116 colon | OVCAR-3 ovarian | UACC-257 melanoma | RXF 393 renal | K-562 leukemia | SK-MEL-5 melanoma | CAKI-1 renal | NCI-H226 lung | SR leukemia | OVCAR-8 ovarian | OVCAR-4 ovarian | 786-0 renal | SK-OV-3 ovarian | HT29 colon | HOP-92 NSCLC | M14 melanoma | SK-MEL-28 melanoma | DMS 273 small cell lung | DLD-1 colon | LXFL 529 NSCLC

Cc1cc(C)nc(NS(=O)(=O)c2ccc(Nc3c4ccccc4nc4c(C(=O)N5CCN(CCOS(C)(=O)=O)CC5)cccc34)cc2)n1
> 100 µM: UO-31 renal | MOLT-4 leukemia | NCI-H460 lung | MALME-3M melanoma | U251 CNS | SF-539 CNS | HL-60(TB) leukemia | A498 renal | CCRF-CEM leukemia | KM12 colon | COLO 205 colon | SNB-75 CNS | HCT-15 colon | DMS 114 small cell lung | IGROV1 ovarian | SF-295 CNS | RPMI-8226 leukemia | SK-MEL-2 melanoma | HCC-2998 colon | SF-268 CNS | OVCAR-5 ovarian | SN12C renal | ACHN renal | A549 NSCLC | KM20L2 colon | TK-10 renal | UACC-62 melanoma | XF 498 CNS | SNB-19 CNS | HOP-62 NSCLC | NCI-H23 lung | M19-MEL melanoma | SNB-78 CNS | HCT-116 colon | OVCAR-3 ovarian | UACC-257 melanoma | RXF 393 renal | K-562 leukemia | SK-MEL-5 melanoma | CAKI-1 renal | NCI-H226 lung | OVCAR-8 ovarian | OVCAR-4 ovarian | SK-OV-3 ovarian | HT29 colon | HOP-92 NSCLC | M14 melanoma | SK-MEL-28 melanoma | DLD-1 colon

COC(=O)/C(=N\NC(C)(C)C)C(C(=O)C(=O)Nc1cc(C)ccc1C)c1nc2ccccc2[nH]c1=O (stereo unspecified)
> 100 µM: MOLT-4 leukemia | SF-539 CNS | HL-60(TB) leukemia | A498 renal | CCRF-CEM leukemia | KM12 colon | COLO 205 colon | SNB-75 CNS | EKVX NSCLC | IGROV1 ovarian | SF-295 CNS | RPMI-8226 leukemia | OVCAR-5 ovarian | SW-620 colon | SN12C renal | ACHN renal | KM20L2 colon | TK-10 renal | UACC-62 melanoma | LOX IMVI melanoma | SNB-19 CNS | HOP-62 NSCLC | NCI-H23 lung | UACC-257 melanoma | K-562 leukemia | SK-MEL-5 melanoma | CAKI-1 renal | NCI-H226 lung | SR leukemia | OVCAR-8 ovarian | OVCAR-4 ovarian | HT29 colon | HOP-92 NSCLC | DLD-1 colon

Source: PubChem BioAssay (NCI)
